The results in this text go back to patent publication US10093611B2, “Benzocycloalkenes as antifungal agents” (Bayer Intellectual Property GmbH, priority 2010, dated 2018).

For orientation: logP means the decadic logarithm of the partition coefficient of the neutral form, usually between octanol and water. Low values mean a more hydrophilic compound, high ones a more lipophilic compound.

A short description of data set [1]: log P by HPLC on reversed-phase column (C 18), EEC Directive 79/831 Annex V.A8. It counts as physicochemical. The settings on record: C 18 reversed phase, 40° C., 0.1% aqueous formic acid and acetonitrile gradient. The procedure:
In table 1, the log P values were determined in accordance with EEC Directive 79/831 Annex V.A8 by HPLC (High Performance Liquid Chromatography) on a reversed-phase column (C 18), using the method described below: Temperature: 40° C.; Mobile phases: 0.1% aqueous formic acid and acetonitrile; linear gradient from 10% acetonitrile to 90% acetonitrile. Calibration was carried out using unbranched alkan-2-ones (comprising 3 to 16 carbon atoms) with known log P values (determination of the log P values by the retention times using linear interpolation between two successive alkanones). lambda-max-values were determined using UV-spectra from 200 nm to 400 nm and the peak values of the chromatographic signals.

A further data set concerns Alternaria solani. Description: In vivo preventive test on Alternaria solani (tomato). The note with it: 500 ppm of active ingredient, evaluated 7 days after inoculation. The procedure: EXAMPLE A: IN VIVO PREVENTIVE TEST ON ALTERNARIA SOLANI (TOMATO) Solvent: 49 parts by weight of N,N-dimethylformamide Emulsifier: 1 part by weight of Alkylarylpolyglycolether To produce a suitable preparation of active compound, 1 part by weight of active compound is mixed with the stated amounts of solvent and emulsifier, and the concentrate is diluted with water to the desired concentration. To test for preventive activity, young plants are sprayed with the preparation of active compound at the stated rate of application. One day after this treatment, the plants are inoculated with an aqueous spore suspension of Alternaria solani. The plants remain for one day in an incubation cabinet at approximately 22° C. and a relative atmospheric humidity of 100%. Then the plants are placed in an incubation cabinet at approximately 20° C. and a relative atmospheric humidity of 96%. The test is evaluated 7 days after the inoculation. 0% means an efficacy which corresponds to that of the control while an efficacy of 100% means that no disease is observed. Under these conditions, good (at least 80%) to total protection is observed at a dose of 500 ppm of active ingredient with the following compounds from table A: […]

The test system of a further data set is Pyrenophora teres. The data set is described as follows: In vivo preventive test on Pyrenophora teres (barley). The note with it: 500 ppm of active ingredient, evaluated 7-9 days after inoculation. The procedure:
EXAMPLE F: IN VIVO PREVENTIVE TEST ON PYRENOPHORA TERES (BARLEY) Solvent: 49 parts by weight of N,N-dimethylformamide Emulsifier: 1 part by weight of Alkylarylpolyglycolether To produce a suitable preparation of active compound, 1 part by weight of active compound is mixed with the stated amounts of solvent and emulsifier, and the concentrate is diluted with water to the desired concentration. To test for preventive activity, young plants are sprayed with the preparation of active compound at the stated rate of application. One day after this treatment, the plants are inoculated with an aqueous spore suspension of Pyrenophora teres. The plants remain for 48 hours in an incubation cabinet at 22° C. and a relative atmospheric humidity of 100%. Then the plants are placed in a greenhouse at a temperature of approximately 20° C. and a relative atmospheric humidity of approximately 80%. The test is evaluated 7-9 days after the inoculation. 0% means an efficacy which corresponds to that of the untreated control while an efficacy of 100% means that no disease is observed. Under these conditions, high (at least 90%) to total protection is observed at a dose of 500 ppm of active ingredient with the following compounds from table F: […]

A further data set relates to Leptosphaeria nodorum. The data set is described as follows: In vivo preventive test on Leptosphaeria nodorum (wheat). The note with it: 500 ppm of active ingredient, evaluated 8 days after inoculation. The procedure:
EXAMPLE D: IN VIVO PREVENTIVE TEST ON LEPTOSPHAERIA NODORUM (WHEAT) Solvent: 49 parts by weight of N,N-dimethylacetamide Emulsifier: 1 part by weight of alkylaryl polyglycol ether To produce a suitable preparation of active compound, 1 part by weight of active compound or the compound combination is mixed with the stated amounts of solvent and emulsifier, and the concentrate is diluted with water to the desired concentration. To test for protective activity, young plants are sprayed with a preparation of active compound or active compound combination at the stated rate of application. After the spray coating has dried on, the plants are sprayed with a spore suspension of Leptosphaeria nodorum. The plants remain for 48 hours in an incubation cabinet at 20° C. and a relative atmospheric humidity of 100%. The plants are placed in a greenhouse at a temperature of approximately 22° C. and a relative atmospheric humidity of approximately 80%. The test is evaluated 8 days after the inoculation. 0% means an efficacy which corresponds to that of the control, while an efficacy of 100% means that no disease is observed. Under these conditions, good (at least 75%) to total protection is observed at a dose of 500 ppm of active ingredient with the following compounds from table D: Under the same conditions, excellent protection (greater than 94%) is observed at a dose of 500 ppm of active ingredient with compound 2, whereas poor protection (less than 30%) is observed with the isosteric analogue compound CMP1 claimed in WO-2009/016218 as in table D2.

A further data set has as its system Sphaerotheca fuliginea. The data set is described as follows: In vivo preventive test on Sphaerotheca fuliginea (cucumbers). The settings on record: 500 ppm of active ingredient, evaluated 7 days after inoculation. The procedure:
EXAMPLE H: IN VIVO PREVENTIVE TEST ON SPHAEROTHECA FULIGINEA (CUCUMBERS) Solvent: 24.5 parts by weight of acetone • 24.5 parts by weight of N,N-dimethylacetamide Emulsifier: 1 part by weight of alkylaryl polyglycol ether To produce a suitable preparation of active compound, 1 part by weight of active compound is mixed with the stated amounts of solvent and emulsifier, and the concentrate is diluted with water to the desired concentration. To test for protect activity, young plants are sprayed with the preparation of active compound at the stated rate of application. After the spray coating has dried on, the plants are inoculated with an aqueous spore suspension of Sphaerotheca fuliginea. The plants are then placed in a greenhouse at approximately 23° C. and a relative atmospheric humidity of approximately 70%. The test is evaluated 7 days after the inoculation. 0% means an efficacy which corresponds to that of the untreated control, while an efficacy of 100% means that no disease is observed. Under these conditions, high (at least 90%) to total protection is observed at a dose of 100 ppm of active ingredient with the following compounds from table H: Under the same conditions, high protection (greater than 80%) is observed at a dose of 500 ppm of active ingredient with compound 7, whereas poor protection (less than 20%) is observed with the isosteric analogue compound CMP2 claimed in WO-2009/016218 as in table H2.

The molecule `Cn1nc(C(F)F)c(C(=O)N(C2CC2)C2Cc3ccccc3C2)c1Cl` [Example 1] had a logP in data set [1] of 3.35. In addition, the Efficacy with Alternaria solani came to 89%.
As to `Cn1cc(C(=O)N(C2CC2)C2CCc3ccccc3C2)c(C(F)F)n1` (stereo not drawn) [Example 6], in data set [1], the logP is on record as 3.08. In addition, the Efficacy in the data set with Alternaria solani was 95%; in the data set on Pyrenophora teres, 100%.
`Cn1nc(C(F)F)c(C(=O)N(CC2Cc3ccccc3O2)C2CC2)c1F` (stereo not drawn) [Example 19] yielded a logP in data set [1] of 2.86. In addition, the Efficacy with Pyrenophora teres worked out at 100%.
Turning to `Cn1nc(C(F)F)c(C(=S)N(C2CC2)C2CCc3ccccc3C2)c1F` (stereo not drawn) [Example 9], the logP in data set [1] is reported as 4.21. Moreover, the Efficacy worked out at 93% in the data set with Alternaria solani and 100% with Pyrenophora teres.
In data set [1], `Cn1nc(C(F)F)c(C(=O)N(C2CC2)C2CCc3ccccc3C2)c1F` (stereo not drawn) [Example 7] yielded a logP of 3.48. Also, the Efficacy in the data set with Alternaria solani is on record as 100%; in the data set on Leptosphaeria nodorum, 94%; with Pyrenophora teres, 100%; with Sphaerotheca fuliginea, 80%; in the data set with Sphaerotheca fuliginea (listed as compound 7) it was “greater than 80%”.
`CC(C1CCc2ccccc2C1)N(C(=O)c1ccsc1I)C1CC1` (stereo not drawn) [Example 15] gave a logP in data set [1] of 4.82.
Turning to `Cc1cc(C(=O)N(C2CC2)C2CCc3ccccc3C2)c(C)o1` (stereo not drawn) [Example 3], the logP in data set [1] worked out at 4.01.
In data set [1], `Cc1nn(C)c(F)c1C(=O)N(C1CC1)C1CCc2ccccc2C1` (stereo not drawn) [Example 4] had a logP of 3.00. The molecule also gave an Efficacy in the data set with Pyrenophora teres of 90%.
As to `Cn1nc(C(F)F)c(C(=O)N(C2CC2)C2Cc3ccccc3C2)c1F` [Example 2], the logP in data set [1] is on record as 3.19. In addition, the Efficacy in the data set on Alternaria solani is on record as 94%; in the data set with Leptosphaeria nodorum it was 94%; with Leptosphaeria nodorum (listed as compound 2), “greater than 94%”.
In data set [1], `Cn1cc(C(=O)N(CC2Cc3ccccc3O2)C2CC2)c(C(F)F)n1` (stereo not drawn) [Example 18] showed a logP of 2.54. The molecule further returned an Efficacy in the data set on Pyrenophora teres of 95%.
For the molecule `Cc1cc(C(=O)N(C2CC2)C(C)C2Cc3ccccc3C2)c(C)o1` (stereo not drawn) [Example 10], the logP in data set [1] is reported as 4.34. Besides, the Efficacy in the data set on Alternaria solani is 95%; in the data set on Pyrenophora teres, 90%.
In turn, `Cn1cc(C(=S)N(C2CC2)C2CCc3ccccc3C2)c(C(F)F)n1` (stereo not drawn) [Example 8] displayed a logP in data set [1] of 3.73. The same molecule displayed an Efficacy in the data set on Pyrenophora teres of 95%.
With `CCc1nn(C)c(F)c1C(=O)N(C1CC1)C1CCc2ccccc2C1` (stereo not drawn) [Example 5], in data set [1], the logP is 3.35. The results for the Efficacy with Alternaria solani, in the data set on Leptosphaeria nodorum and in the data set with Pyrenophora teres were 95%, 78% and 95%, respectively.
With `Cn1nc(C(F)F)c(C(=O)N(CC2COc3ccccc3C2)C2CC2)c1F` (stereo not drawn) [Example 20], in data set [1], the logP came to 3.00. For the same molecule, the Efficacy came to 80% in the data set with Alternaria solani and 100% with Pyrenophora teres.
In data set [1], `Cn1nc(C(F)F)c(C(=O)N(CC2Cc3ccccc3O2)C2CC2)c1Cl` (stereo not drawn) [Example 21] came in with a logP of 3.04.
